The results in this text go back to patent US10919882B2, “Compounds for use in synthesis of peptidomimetics” (THE FEINSTEIN INSTITUTES FOR MEDICAL RESEARCH, priority 2019, dated 2021).

This data set in a line: Stability of HOBt aza building blocks with Boc, Fmoc or Phth alpha-amino protection. It is filed as physicochemical. The source says: Assessing the Compatibility of HOBt Aza Building Blocks in the Presence of Traditional Alpha Amino Protecting Groups (e.g. Phth, Fmoc and Boc) with Other Protecting Synthesis and Stability
The issues with stability were observed when the N-1 is protected with R=Boc or Fmoc and R′═H. This is due to the presence of NH that leads to undesirable intramolecular cyclization and formation oxadiazoles (Future Med. Chem. (2011) 3(9), 1139-1164) Org. Biomol. Chem., 2015, 13, 59-63. Boc and Fmoc form an unwanted side reaction of carboxyanhydride in peptide synthesis with acid halogenation reagent (Acc. Chem. Res. 1996, 29, 268-274; J. Am. Chem. Soc. 1996, 118, 9796-9797) and in azapeptide synthesis with hydrazine component, the oxadiazalone will be formed (Journal of Peptide Science 2013, 19, 725-729).

Turning to `O=C(On1nnc2ccccc21)N(Cc1ccccc1)N1C(=O)c2ccccc2C1=O`, where the note is “in solution / organic solvents, room temperature”, the “Isolated Yield and Stability (in solution)” value is “Stable in organic solvents such as acetone, dichloromethane, acetonitrile, DMF at room temperature for weeks”. The “Isolated Yield and Stability (solid form)” value (isolated product as solid) is given as “Stable white solid”.
